According to publication PMC2709273 (The Journal of pharmacology and experimental therapeutics, 2008):
“Also recorded” adds a separate entry of the source. Like-named read-outs stand apart in the source and are kept apart here. Where a SMILES comes first, the peptide text is derived from it.

Key:
[1] = biological target: T1, α7 nAChRs (Rattus norvegicus, UniProt Q05941); format: cell-based
[2] = biological target: homomeric α7 nicotinic acetylcholine receptor expressed in X. laevis oocytes (UniProt Q05941)
Sequence of homomeric α7 nicotinic acetylcholine receptor expressed in X. laevis oocytes (Q05941 23-502): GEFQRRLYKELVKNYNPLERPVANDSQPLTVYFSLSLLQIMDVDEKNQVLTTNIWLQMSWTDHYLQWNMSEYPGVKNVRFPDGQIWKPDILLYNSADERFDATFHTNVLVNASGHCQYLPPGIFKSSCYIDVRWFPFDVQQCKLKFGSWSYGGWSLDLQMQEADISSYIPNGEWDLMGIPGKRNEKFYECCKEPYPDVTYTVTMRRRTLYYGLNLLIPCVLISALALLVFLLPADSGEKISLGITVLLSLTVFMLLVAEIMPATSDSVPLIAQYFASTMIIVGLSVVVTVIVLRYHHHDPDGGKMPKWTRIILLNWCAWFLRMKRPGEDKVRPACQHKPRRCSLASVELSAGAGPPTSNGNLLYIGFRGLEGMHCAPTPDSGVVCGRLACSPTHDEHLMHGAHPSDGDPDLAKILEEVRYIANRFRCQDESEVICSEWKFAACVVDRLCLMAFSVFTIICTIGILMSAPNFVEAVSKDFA

[3] = biological target: α4β2 nAChRs (Rattus norvegicus, UniProt P09483+P12390); format: cell-based
Sequence of α4β2 nAChRs (P09483 31-630): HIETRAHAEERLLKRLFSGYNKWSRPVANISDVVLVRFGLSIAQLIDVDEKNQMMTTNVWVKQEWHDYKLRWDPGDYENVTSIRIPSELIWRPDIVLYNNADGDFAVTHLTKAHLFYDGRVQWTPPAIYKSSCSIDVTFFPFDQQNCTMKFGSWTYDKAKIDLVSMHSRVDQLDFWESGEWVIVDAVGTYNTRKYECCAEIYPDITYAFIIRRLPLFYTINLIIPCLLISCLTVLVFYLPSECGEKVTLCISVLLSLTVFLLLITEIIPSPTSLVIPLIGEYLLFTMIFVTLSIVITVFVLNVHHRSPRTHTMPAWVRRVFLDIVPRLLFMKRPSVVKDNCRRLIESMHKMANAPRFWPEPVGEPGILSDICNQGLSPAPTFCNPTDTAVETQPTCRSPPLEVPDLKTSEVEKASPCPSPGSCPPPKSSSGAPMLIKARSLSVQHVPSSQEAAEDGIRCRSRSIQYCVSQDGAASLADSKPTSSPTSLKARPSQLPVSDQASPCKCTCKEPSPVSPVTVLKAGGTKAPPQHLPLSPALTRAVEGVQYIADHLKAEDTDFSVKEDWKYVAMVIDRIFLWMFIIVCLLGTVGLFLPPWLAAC
Sequence of α4β2 nAChRs (P12390 25-500): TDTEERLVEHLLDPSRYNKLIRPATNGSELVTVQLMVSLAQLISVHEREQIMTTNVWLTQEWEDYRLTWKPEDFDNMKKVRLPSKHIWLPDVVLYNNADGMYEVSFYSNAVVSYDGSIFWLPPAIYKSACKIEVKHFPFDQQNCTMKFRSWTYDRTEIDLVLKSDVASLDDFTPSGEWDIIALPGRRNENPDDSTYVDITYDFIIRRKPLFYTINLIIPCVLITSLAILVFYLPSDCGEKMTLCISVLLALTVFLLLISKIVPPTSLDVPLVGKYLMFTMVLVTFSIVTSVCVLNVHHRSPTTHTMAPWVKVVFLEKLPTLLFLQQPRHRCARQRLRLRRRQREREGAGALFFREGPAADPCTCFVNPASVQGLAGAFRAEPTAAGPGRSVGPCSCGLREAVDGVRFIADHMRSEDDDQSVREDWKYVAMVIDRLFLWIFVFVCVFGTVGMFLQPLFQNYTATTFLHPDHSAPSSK

[4] = biological target: α2β2 nAChRs (Rattus norvegicus, UniProt P12389+P12390); format: cell-based
Sequence of α2β2 nAChRs (P12389 28-511): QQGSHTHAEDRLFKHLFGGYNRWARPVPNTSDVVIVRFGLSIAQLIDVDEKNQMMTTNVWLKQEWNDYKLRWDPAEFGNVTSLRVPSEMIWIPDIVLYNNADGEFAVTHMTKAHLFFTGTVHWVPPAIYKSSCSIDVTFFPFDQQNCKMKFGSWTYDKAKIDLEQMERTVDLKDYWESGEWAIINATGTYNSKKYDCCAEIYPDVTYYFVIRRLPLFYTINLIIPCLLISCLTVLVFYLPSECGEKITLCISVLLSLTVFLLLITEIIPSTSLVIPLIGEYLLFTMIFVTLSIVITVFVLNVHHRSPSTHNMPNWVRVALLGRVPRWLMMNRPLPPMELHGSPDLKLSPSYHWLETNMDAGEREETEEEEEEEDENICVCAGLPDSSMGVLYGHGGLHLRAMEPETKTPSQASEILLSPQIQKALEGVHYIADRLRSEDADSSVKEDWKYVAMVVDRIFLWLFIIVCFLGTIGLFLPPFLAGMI
Sequence of α2β2 nAChRs (P12390 25-500): as the sequence (P12390 25-500) above

[5] = biological target: native α7-containing nAChRs (rat CA1 stratum radiatum interneurons) (Rattus norvegicus, UniProt Q05941); format: cell-based
Sequence of native α7-containing nAChRs (rat CA1 stratum radiatum interneurons) (Q05941 23-502): as the sequence (Q05941 23-502) above

[6] = biological target: T1, α7 nAChRs; conditions: native and expressed receptors, cited from earlier work
[7] = heteromeric nAChRs, X. laevis oocytes

T1 sequence (Q05941 23-502): as above

KKKKKRFDFKKDFKLDGFDFKKNK [MARCKS S/D]
inhibition of ACh-evoked α7 nAChR responses (in words) ([1]; X. laevis oocytes): unable to inhibit ACh-mediated α7 nAChR responses; also recorded: lack of inhibition of nAChR responses

MARCKS_(159–165) peptide
percentage block of ACh-evoked α7 nAChR current in oocytes, peptide 1 µM [2]: 5%

CC(=O)N[C@@H](CCCCN)C(=O)N[C@@H](CCCCN)C(=O)N[C@@H](CCCCN)C(=O)N[C@@H](CCCCN)C(=O)N[C@@H](CCCCN)C(=O)N[C@@H](CCCNC(=N)N)C(=O)N[C@@H](Cc1ccccc1)C(=O)N[C@@H](CO)C(=O)N[C@@H](Cc1ccccc1)C(=O)N[C@@H](CCCCN)C(=O)N[C@@H](CCCCN)C(=O)N[C@@H](CO)C(=O)N[C@@H](Cc1ccccc1)C(=O)N[C@@H](CCCCN)C(=O)N[C@@H](CC(C)C)C(=O)N[C@@H](CO)C(=O)NCC(=O)N[C@@H](Cc1ccccc1)C(=O)N[C@@H](CO)C(=O)N[C@@H](Cc1ccccc1)C(=O)N[C@@H](CCCCN)C(=O)N[C@@H](CCCCN)C(=O)N[C@@H](CC(N)=O)C(=O)N[C@@H](CCCCN)C(=O)N[C@@H](CCCCN)C(N)=O [MARCKS ED peptide] (Ac-KKKKKRFSFKKSFKLSGFSFKKNKK-NH2)
inhibition not because of open channel block ([1]; 1 µM peptide, +30 vs -60 mV): 86% | voltage-dependent part of the inhibition ([1]; 1 µM peptide, +30 vs -60 mV): 14% | onset of inhibition ([1]; 1 µM, X. laevis oocytes): rapid | voltage dependence of inhibition ([1]; +30 and -60 mV): activity- and voltage-independent; also recorded: voltage- and activity-independent | inhibition of ACh-evoked α7 nAChR responses (in words) ([1]; X. laevis oocytes): completely inhibited | washout / recovery from inhibition ([1]; X. laevis oocytes): slow and slow recovery during washout and slow to recover with washout | activity (use) dependence of inhibition ([1]; peptide bath applied 10 min without ACh stimulation, then ACh): activity- and voltage-independent; also recorded: there was not a use-dependent component of the peptide block; also recorded: voltage- and activity-independent | inhibition at 1 µM ([1]; read-out: activity-independent inhibition of α7 nAChRs): 98 ± 2% | inhibition at 1 µM ([1]; read-out: inhibition of ACh-induced α7 nAChR peak current responses): 99 ± 0.2% | inhibition at 0.1 µM ([1]; read-out: inhibition of α7 ACh responses at 100 nM): 90 ± 2% | inhibition at 1 µM ([1]; read-out: inhibition still present after washout): 82 ± 3% | potency at α4β2 compared with α7 nAChRs ([3]; IC50 comparison by F test): decreased potency; also recorded: less potent inhibition | dissociation from α4β2 nAChRs relative to α7 [3, 7]: appears to dissociate more rapidly from heteromeric nAChRs | potency at α2β2 compared with α7 nAChRs ([4]; IC50 comparison by F test): decreased potency; also recorded: less potent inhibition | dissociation from α2β2 nAChRs relative to α7 [4, 7]: appears to dissociate more rapidly from heteromeric nAChRs | block of native α7 nAChRs in hippocampal interneurons (in words) ([5]; acute rat hippocampal slices): able to block native α7 nAChRs in a dose-dependent manner | effect on baseline current in hippocampal interneurons ([5]; bath application): no effect | onset of inhibition, hippocampal slices ([5]; bath application): slow | inhibition at 1 µM ([5]; read-out: inhibition of ACh-evoked responses in hippocampal interneurons, 1 µM): 59 ± 13% | inhibition at 3 µM ([5]; read-out: inhibition of ACh-evoked responses in hippocampal interneurons, 3 µM): 92 ± 2% | inhibition at 10 µM ([5]; read-out: inhibition of ACh-evoked responses in hippocampal interneurons, 10 µM): 100% | recovery of responses after washout, hippocampal slices ([5]; within 20 min of washout, two to three interneurons): do not recover after MARCKS ED peptide inhibition

MARCKS_(154–165) peptide
percentage block of ACh-evoked α7 nAChR current in oocytes, peptide 1 µM [2]: 12%

MARCKS154–165: truncated form of the MARCKS ED peptide, purchased from AnaSpec (KKKRFSFKKSFK; UniProt P29966 154-165, looked up, fragment)
inhibition of ACh-evoked α7 nAChR responses (in words) ([1]; X. laevis oocytes): unable to significantly inhibit α7 nAChRs

MARCKS159–165: truncated form of the MARCKS ED peptide, purchased from AnaSpec (SFKKSFK; UniProt P29966 159-165, looked up, fragment)
inhibition of ACh-evoked α7 nAChR responses (in words) ([1]; X. laevis oocytes): unable to significantly inhibit α7 nAChRs

β-Amyloid1–42: brain-derived peptide β-amyloid1–42
effect on α7 nAChRs ([6]; ref Dineley et al., 2002, Dougherty et al., 2003): agonism | effect on α7 nAChRs ([6]; ref Liu et al., 2001, Grassi et al., 2003): almost complete antagonism | effect on α7 nAChRs ([6]; ref Pettit et al., 2001, Lamb et al., 2005): minimal to no antagonism
